The values that follow come from patent publication US12421232B2, “Kinase inhibitor compounds and compositions and methods of use” (ICAHN SCHOOL OF MEDICINE AT MOUNT SINAI, priority 2018, dated 2025).

Positions count from the first letter of the chain named. Where two headings read alike, the source gives them in different places.

Common to all, as to assay: KINOMEscan Assay (DiscoverX)
Holding throughout (assay type): binding
Common to all, as to conditions: read-out: % DMSO Ctrl

The target of one test is T1, KIT(L576P) (Homo sapiens, UniProt P10721, L576P).
T1 construct: purchased DiscoverX

The target of another test is T2, ROCK2 (Homo sapiens, UniProt O75116).
T2 construct: purchased DiscoverX

The target of another test is T3, CAMK2A (Homo sapiens, UniProt Q9UQM7).
T3 construct: purchased DiscoverX

The next test deals with T4, PIK3CA(I800L) (Homo sapiens, UniProt P42336, I800L).
T4 construct: purchased DiscoverX

The target of the next test is T5, FLT3(K663Q) (Homo sapiens, UniProt P36888, K663Q).
T5 construct: purchased DiscoverX
T5 sequence (P36888 27-993 K663Q): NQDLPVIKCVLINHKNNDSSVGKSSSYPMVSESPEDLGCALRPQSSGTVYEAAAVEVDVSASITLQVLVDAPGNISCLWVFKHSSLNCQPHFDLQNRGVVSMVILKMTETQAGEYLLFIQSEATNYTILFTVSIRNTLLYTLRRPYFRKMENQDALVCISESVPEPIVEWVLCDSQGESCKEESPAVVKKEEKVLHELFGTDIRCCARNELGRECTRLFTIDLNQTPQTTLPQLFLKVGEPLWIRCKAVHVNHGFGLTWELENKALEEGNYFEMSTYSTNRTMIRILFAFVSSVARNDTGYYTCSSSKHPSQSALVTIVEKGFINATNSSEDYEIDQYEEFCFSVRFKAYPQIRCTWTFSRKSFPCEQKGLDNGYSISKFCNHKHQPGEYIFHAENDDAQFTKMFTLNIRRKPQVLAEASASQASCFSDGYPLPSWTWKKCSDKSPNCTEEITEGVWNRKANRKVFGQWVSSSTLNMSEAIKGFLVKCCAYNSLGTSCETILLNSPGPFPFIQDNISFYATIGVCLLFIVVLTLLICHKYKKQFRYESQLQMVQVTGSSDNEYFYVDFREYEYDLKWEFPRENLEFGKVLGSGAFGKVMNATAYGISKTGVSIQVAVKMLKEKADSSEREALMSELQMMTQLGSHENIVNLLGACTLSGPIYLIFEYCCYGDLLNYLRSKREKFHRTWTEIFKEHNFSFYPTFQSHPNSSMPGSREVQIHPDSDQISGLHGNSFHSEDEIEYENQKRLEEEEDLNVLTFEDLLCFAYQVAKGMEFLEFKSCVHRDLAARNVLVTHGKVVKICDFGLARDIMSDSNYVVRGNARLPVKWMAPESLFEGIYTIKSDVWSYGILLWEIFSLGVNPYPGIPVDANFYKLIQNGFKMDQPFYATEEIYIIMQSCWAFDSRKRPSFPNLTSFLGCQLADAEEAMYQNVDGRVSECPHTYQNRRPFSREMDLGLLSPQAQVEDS

The next test has as its target T6, PIP5K2C (Homo sapiens, UniProt Q8TBX8).
T6 construct: purchased DiscoverX
T6 sequence (Q8TBX8 1-421): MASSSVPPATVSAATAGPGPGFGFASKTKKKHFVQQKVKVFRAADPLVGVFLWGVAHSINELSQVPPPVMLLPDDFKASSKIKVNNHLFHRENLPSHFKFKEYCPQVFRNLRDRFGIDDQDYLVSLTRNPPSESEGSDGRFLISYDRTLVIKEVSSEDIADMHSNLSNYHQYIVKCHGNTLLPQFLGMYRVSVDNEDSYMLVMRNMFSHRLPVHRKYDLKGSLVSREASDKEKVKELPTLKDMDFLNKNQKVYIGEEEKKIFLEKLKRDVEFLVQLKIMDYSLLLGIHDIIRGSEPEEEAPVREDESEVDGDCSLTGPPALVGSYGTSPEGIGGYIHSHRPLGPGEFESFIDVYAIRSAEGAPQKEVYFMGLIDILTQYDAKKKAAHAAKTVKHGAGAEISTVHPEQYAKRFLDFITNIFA

A further test has as its target T7, FLT3(N841I) (Homo sapiens, UniProt P36888, N841I).
T7 construct: purchased DiscoverX
T7 sequence (P36888 27-993 N841I): T5 sequence (P36888 27-993 K663Q) with Q637K, N815I

Another test addresses T8, DYRK1B (Homo sapiens, UniProt Q9Y463).
T8 construct: purchased DiscoverX

A further test concerns the target T9, CDK7 (Homo sapiens, UniProt P50613).
T9 construct: purchased DiscoverX

T9 sequence (P50613 whole entry): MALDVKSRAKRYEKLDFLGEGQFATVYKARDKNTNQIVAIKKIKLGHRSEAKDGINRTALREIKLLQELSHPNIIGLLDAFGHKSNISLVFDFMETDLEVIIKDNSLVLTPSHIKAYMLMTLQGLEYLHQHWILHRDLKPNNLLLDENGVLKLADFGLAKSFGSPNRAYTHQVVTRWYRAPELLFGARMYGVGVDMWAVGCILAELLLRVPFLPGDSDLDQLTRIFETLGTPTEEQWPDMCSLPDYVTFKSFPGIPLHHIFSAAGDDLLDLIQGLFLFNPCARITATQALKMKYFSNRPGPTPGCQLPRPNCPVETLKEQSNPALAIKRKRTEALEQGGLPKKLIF
T4 sequence (P42336 whole entry I800L): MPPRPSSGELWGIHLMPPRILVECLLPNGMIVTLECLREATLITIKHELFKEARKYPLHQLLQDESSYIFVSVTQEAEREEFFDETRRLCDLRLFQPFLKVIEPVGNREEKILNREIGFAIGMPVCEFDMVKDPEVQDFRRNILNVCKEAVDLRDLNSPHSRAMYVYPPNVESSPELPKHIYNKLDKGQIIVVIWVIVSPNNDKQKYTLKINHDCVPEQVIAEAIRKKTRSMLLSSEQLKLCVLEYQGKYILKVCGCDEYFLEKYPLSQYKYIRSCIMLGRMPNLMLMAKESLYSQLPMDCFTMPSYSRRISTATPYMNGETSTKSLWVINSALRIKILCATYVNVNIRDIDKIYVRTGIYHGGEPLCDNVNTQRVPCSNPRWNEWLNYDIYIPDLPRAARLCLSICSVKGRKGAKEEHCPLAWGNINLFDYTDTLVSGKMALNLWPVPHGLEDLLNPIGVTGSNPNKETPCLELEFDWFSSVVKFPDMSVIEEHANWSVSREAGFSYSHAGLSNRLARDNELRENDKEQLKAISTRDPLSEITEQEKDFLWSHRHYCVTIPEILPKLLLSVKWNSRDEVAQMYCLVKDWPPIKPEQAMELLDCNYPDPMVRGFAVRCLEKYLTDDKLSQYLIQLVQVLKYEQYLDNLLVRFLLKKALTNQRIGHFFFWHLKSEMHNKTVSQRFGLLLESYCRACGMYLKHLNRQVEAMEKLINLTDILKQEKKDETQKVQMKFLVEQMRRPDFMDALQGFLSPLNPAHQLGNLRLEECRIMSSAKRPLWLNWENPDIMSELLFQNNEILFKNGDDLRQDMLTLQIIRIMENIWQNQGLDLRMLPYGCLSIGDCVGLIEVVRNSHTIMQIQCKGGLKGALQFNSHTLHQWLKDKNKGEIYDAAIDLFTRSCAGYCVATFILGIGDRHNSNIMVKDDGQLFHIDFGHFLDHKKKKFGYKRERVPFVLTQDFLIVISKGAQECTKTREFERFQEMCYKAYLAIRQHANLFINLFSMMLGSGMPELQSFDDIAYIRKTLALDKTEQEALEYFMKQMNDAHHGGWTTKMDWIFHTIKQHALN
T1 sequence (P10721 26-976 L576P): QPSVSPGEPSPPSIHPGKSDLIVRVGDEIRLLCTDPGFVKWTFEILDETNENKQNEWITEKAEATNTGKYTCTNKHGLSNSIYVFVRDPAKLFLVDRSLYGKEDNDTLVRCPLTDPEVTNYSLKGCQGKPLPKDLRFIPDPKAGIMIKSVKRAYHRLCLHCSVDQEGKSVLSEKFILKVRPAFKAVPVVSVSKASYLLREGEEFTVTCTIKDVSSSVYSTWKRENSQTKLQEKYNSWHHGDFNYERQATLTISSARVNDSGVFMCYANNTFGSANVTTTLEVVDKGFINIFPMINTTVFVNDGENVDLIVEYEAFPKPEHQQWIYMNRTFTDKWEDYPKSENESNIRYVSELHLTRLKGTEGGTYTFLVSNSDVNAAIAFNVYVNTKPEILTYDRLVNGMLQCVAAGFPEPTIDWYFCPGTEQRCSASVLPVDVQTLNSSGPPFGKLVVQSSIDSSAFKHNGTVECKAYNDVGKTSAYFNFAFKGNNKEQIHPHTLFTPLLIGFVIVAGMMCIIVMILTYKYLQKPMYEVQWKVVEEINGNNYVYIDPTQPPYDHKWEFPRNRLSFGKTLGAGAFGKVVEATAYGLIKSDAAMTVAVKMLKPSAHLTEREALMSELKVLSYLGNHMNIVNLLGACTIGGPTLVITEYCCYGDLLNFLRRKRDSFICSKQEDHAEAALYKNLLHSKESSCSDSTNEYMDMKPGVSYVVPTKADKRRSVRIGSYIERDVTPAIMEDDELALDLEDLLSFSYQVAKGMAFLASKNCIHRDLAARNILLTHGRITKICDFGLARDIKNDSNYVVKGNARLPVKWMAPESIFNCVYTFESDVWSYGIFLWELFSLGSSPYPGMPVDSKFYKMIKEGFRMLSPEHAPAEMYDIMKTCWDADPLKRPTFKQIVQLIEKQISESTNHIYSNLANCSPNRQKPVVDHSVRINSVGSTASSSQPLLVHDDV
T8 sequence (Q9Y463 whole entry): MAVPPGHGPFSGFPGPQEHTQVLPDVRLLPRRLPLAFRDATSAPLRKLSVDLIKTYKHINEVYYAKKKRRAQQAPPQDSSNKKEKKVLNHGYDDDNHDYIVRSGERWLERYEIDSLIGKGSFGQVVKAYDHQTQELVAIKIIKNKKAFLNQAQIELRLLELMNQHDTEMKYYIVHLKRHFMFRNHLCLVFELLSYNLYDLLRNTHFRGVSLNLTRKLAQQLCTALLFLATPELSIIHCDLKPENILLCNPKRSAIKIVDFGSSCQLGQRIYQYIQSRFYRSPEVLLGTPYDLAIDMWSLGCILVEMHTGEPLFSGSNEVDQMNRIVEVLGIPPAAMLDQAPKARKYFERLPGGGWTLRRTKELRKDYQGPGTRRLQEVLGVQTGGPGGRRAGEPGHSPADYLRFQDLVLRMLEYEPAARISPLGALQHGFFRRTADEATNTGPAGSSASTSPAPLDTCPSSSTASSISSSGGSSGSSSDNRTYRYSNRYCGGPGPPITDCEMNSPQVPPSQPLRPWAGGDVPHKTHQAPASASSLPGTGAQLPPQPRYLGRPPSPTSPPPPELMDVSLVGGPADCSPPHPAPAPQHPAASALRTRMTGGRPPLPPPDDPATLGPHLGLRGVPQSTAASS
T2 sequence (O75116 whole entry): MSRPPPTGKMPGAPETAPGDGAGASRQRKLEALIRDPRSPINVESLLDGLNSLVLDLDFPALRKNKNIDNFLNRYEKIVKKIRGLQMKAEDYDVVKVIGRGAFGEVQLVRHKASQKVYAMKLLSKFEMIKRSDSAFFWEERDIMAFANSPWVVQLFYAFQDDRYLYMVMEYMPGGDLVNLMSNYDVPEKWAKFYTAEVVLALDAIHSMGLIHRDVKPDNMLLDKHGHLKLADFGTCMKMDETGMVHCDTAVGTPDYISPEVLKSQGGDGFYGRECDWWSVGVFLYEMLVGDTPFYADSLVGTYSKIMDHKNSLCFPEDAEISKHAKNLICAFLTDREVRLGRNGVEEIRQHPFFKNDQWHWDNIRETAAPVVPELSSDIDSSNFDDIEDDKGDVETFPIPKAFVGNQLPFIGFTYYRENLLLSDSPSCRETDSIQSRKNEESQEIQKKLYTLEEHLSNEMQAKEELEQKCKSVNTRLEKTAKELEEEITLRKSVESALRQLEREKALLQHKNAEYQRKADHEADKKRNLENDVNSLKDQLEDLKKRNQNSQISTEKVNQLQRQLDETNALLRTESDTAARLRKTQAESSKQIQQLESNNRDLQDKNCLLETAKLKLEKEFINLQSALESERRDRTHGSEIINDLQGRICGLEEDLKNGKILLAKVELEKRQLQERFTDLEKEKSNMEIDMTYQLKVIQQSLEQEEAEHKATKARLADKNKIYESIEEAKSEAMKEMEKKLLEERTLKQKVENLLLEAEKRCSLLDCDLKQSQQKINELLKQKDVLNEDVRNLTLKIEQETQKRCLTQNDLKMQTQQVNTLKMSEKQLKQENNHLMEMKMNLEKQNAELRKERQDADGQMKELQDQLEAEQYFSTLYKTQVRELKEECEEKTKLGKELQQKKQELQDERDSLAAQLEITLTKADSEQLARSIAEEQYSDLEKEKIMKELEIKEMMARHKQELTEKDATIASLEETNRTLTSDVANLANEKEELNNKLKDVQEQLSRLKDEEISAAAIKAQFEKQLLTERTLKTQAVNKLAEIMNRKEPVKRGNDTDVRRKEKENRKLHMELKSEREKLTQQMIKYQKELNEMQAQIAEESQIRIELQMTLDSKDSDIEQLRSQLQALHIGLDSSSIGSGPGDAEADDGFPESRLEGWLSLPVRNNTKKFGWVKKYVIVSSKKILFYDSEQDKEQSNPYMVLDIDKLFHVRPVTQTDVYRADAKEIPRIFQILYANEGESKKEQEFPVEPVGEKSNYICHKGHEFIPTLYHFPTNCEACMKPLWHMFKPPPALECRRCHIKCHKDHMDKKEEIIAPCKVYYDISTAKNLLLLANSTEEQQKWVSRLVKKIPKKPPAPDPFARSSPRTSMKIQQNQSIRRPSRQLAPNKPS
T3 sequence (Q9UQM7 whole entry): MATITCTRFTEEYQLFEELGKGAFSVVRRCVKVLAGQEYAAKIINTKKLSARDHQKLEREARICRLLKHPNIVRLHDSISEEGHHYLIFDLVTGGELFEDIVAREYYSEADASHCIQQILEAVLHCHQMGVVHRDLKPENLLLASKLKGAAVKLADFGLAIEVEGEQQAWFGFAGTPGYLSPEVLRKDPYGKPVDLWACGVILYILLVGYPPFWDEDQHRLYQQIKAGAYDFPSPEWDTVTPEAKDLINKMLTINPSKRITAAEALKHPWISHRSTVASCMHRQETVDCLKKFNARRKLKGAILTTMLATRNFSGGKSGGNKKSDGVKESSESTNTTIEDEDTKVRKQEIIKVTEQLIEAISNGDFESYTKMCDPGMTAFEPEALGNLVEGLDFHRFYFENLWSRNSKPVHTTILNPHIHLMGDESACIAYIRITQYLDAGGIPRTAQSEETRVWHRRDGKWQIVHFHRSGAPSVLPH

`COc1ccc2c(c1)[nH]c1c(C)nc(CO)cc12` [Compound 2-8, (1-Methyl-7-methoxy-9H-pyrido[3,4-b]indol-3-yl)methanol]: the remaining binding at 10 µM on KIT(L576P) (KIT(L576P) mutant, 10 μM) came out at 94%; on ROCK2 (ROCK2, 10 μM), 88%; at CAMK2A (CAMK2A, 10 μM), 53%; at PIK3CA(I800L) (PIK3CA(I800L) mutant, 10 μM), 63%; on FLT3(K663Q) (FLT3(K663Q) mutant, 10 μM), 100%; at PIP5K2C (PIP5K2C, 10 μM) it was 5%. Besides, the remaining binding at 10 µM at FLT3(N841I) (FLT3(N841I) mutant, 10 μM) is 74%.
Take `COc1ccc2c3ccnc(C)c3n(CCCc3noc(N)n3)c2c1` [Compound 20-13, 3-(3-(7-Methoxy-1-methyl-β-carbolin-9-yl)propyl)-5-amino-1,2,4-oxadiazole]: the remaining binding at 10 µM at KIT(L576P) stood at 100%; on ROCK2, 86%; at CAMK2A it was 72%; at DYRK1B, 1%; at CDK7 it was 51%; on PIK3CA(I800L), 10%. For the same molecule, the values for the remaining binding at 10 µM on FLT3(K663Q), on PIP5K2C and on FLT3(N841I) were 98%, 13% and 78%, respectively.
In the case of `C#CCn1c2cc(OC)ccc2c2ccnc(C)c21` [Compound 20-23a, 3-(7-Methoxy-1-methyl-β-carbolin-9-yl)-propan-1-yne], the remaining binding at 10 µM at KIT(L576P) was determined as 74%; at ROCK2 it was 16%; on CAMK2A, 13%; on DYRK1B (DYRK1B, 10 μM) it was 1.1%; on CDK7 (CDK7, 10 μM) it was 0.8%; on PIK3CA(I800L), 73%. Besides, the results for the remaining binding at 10 µM on FLT3(K663Q), on PIP5K2C and on FLT3(N841I) were 93%, 41% and 41%, respectively.
Consider `COc1ccc2c(c1)[nH]c1c(C)nccc12` [Harmine, reference compound], for which the remaining binding at 10 µM at DYRK1B was 6.1%; at CDK7 it was 21%.
